According to patent US9550774B2, “Dihydropyrido pyrimidine compounds as autotaxin inhibitors” (Eli Lilly and Company, priority 2013, dated 2017):

Experiments:
endogenous autotaxin = endogenous autotaxin (Homo sapiens (Human), UniProt Q13822); experiment: Autotaxin Mediated Inhibition of LPA in the Presence of Human Plasma; assay type: biochemical; conditions: 90% pooled human plasma, 3 hours at 37° C., total LPA by mass spec
Description: The following assay is intended to measure autoaxin mediated inhibition of LPA. This assay is a tool that can be used to identify autotaxin-mediated LPA inhibitor compounds when it is used to test compounds that have been identified as autotaxin inhibitors. LPA biosynthesis through autotaxin is believed to the source of LPA for LPA1 mediated neuropathic pain. Makoto Inoue, et. al, “Autotaxin, a synthetic enzyme of lysophosphatidic acid (LPA), mediates the induction of nerve-injured neuropathic pain”, Molecular Pain, 2008, 4:6. Inhibition of the autotaxin mediated LPA biosynthesis is supported by the results of this assay.
Units of plasma from healthy human female donors collected in sodium heparin (Lampire Biologicals) are pooled, aliquoted and stored at −80° C. […] A 400 μl aliquot of extraction buffer (50% methanol, 49.9% acetonitrile, 0.1% acetic acid) containing LPA internal standards (50 ng/ml D5 deuterium LPA 16:0 and 50 ng/ml D5 deuterium LPA 18:0) is added to each well and the total LPA in each sample is determined by mass spec analysis. Percent inhibition of LPA is calculated according to the following formula: 100−(3 hour plasma+test compound−0 hour plasma no test compound control)/(3 hour plasma no test compound control−0 hour plasma no test compound control)×100
[formula] IC50 values are calculated using 4 parameter curve fitting. […]

[1] = target: recombinant human autotaxin (Homo sapiens (Human), UniProt Q13822); experiment: Inhibition of Autotaxin as Measured by Choline Release; assay type: biochemical; conditions: LPC 16:0 30 μM substrate, 37° C. for 1 hour, 4 parameter curve fit
Protocol: The purpose of this assay is to detect autotaxin inhibition using a choline release assay.
Test compound (10 mM stocks in 100% DMSO) is serially diluted in 100% DMSO resulting in 10 concentrations of 100× inhibitor in half area 96 well plates (Corning 3992). Each of these 10 wells in 100% DMSO is diluted 1:33.33 in assay buffer in round bottom 96 well plates (Fisher 12565502) resulting in 3× concentrations in well containing 3% DMSO. The assay buffer is 50 mM Tris pH8.0, 5 mM KCl, 1 mM CaCl2, 1 mM MgCl2, 0.01% TRITON™ X-100 (Sigma T9284) and 0.01% fatty acid free bovine serum albumin (Sigma A8806). A 20 μl aliquot of each 3× test compound is then added to black flat bottom 96 well plates (Corning 3991) in singlicate. A 20 μl aliquot per well of 3× recombinant human autotaxin, (Echelon, E-4000) (full length human autotaxin with a C-terminal His tag transfected into 293E cells and purified via nickel chelate and size exclusion chromatography) is then added to every well except for the no enzyme control wells. A 20 μl aliquot per well of assay buffer is added to the no enzyme control wells. […] The resorufin on the plates is measured with a SpectraMax Gemini EM fluorometer at excitation-emission wavelengths of 530-590 nm using SoftMax Pro 4.8 software. IC50s are calculated using 4 parameter curve fits. […]

Compound | IC50 (endogenous autotaxin) [nM] | IC50 [1] [nM]
O=C(c1cnn(Cc2c[nH]nn2)c1)N1CCc2nc(NC3Cc4ccccc4C3)ncc2C1 [Example 1, [2-(indan-2-ylamino)-7,8-dihydro-5H-pyrido[4,3-d]pyrimidin-6-yl]-[1-(1H-triazol-4-ylmethyl)pyrazol-4-yl]methanone] | 5.4 | < 1.7
O=C(c1cc(-c2cnn[nH]2)ccn1)N1CCc2nc(NC3Cc4ccccc4C3)ncc2C1 [Example 9, [2-(indan-2-ylamino)-7,8-dihydro-5H-pyrido[4,3-d]pyrimidin-6-yl]-[4-(1H-triazol-5-yl)-2-pyridyl]methanone] | 7 | < 1.7
